These are literature values, as cited in patent US20050261194A1, “Use of thymulin-like peptides for making pain-relieving medicines” (priority 2001, published 2005).

Where no end group is shown, it is not given here. [ ]: non-standard residue; d: D form. pGlu = O=C1CC[C@@H](C(=O)O)N1

In this data set the test system is rat. The conditions noted are these: cited from earlier work.

Take “PyroGlu-Ala-Lys-Ser-Gln-Gly-Gly-Ser-Asn ([pGlu]AKSQGGSN) [thymuline]”: the “effect on hyperalgesia at higher doses” value (micrograms in the rat, 50-100 μg/kg) is “reduces hyperalgesia”. The “effect on hyperalgesia at low dose” value (nanograms in the rat, 0.2 to 20 μg/kg) is recorded as “induces hyperalgesia”.
